# Structures can show the parent of a compound that is named as a salt.
# Legend:
# [1] = test system: complement activation (C3a-desarg); experiment: in vitro complement activation, C3a-desarg measured by ELISA after Zymosan addition; assay type: biochemical, rat
# Method: The complement activation was determined from the concentration of C3a-desarg measured by ELISA (rat C3adesARG ELISA #CL89160K; Cedarlane Laboratories Ltd., Hornby, Ontario, Canada). The C3a-desarg levels were expressed as concentrations. Venous blood was used and introduced in a lepirudin treated 5 cc syringe (50 μl lepirudin (5 mg/ml)+70 μl PBS in the syringe and needle). 0.4 ml was transferred to a 3 cc tube with 1.5 ml PD fluid with citrate additions of 0, 2, 4, 6, 8, and 10 mM, respectively, (i.e. 0, 12, 24, 36, 48, 60 μl of a citrate solution with the citrate concentration of 250 mM). Thereafter the samples were spun to remove the blood cells. 1 ml of the supernatant was transferred to a new tube, 20 μl Zymosan (20 mg/ml) was added and the tube. Thereafter EDTA was added to a final concentration of 15 mM, the Zymosan was spun down, and samples of the supernatant were used for the ELISA measurement referred to above. […] However, the upper limit of citrate, which could be present in a PD fluid, is limited by the total amount of buffer solution within the PD fluid. The amount of added citrate influence the total amount of buffer in the PD fluid since citrate also give rise to a buffer effect. Thus, the buffer used in the PD fluid has to be decreased equal to the equivalent amount of added citrate. […]
# [2] = in vivo ultrafiltration volume, intraperitoneal volume by Texas Red labelled albumin dilution; settings: 10 mM citrate in PD fluid; 2 hours after infusion; FIG. 2
# Method: The lower limit of the citrate concentration is evident from FIG. 1, where a reasonable inhibited complement cascade is provided with a citrate concentration of at least 4 mM. The ultrafiltration volume was determined with the aid of a fluorescence labelled albumin. This was used as volume marker according to a recently developed technique, in which Texas Red® labelled bovine serum albumin (TR-BSA) has been used as a tracer for determinations of plasma volume. The fluorescence characteristics of TR-BSA (Molecular Probes, Eugene, Oreg., USA) solved in fresh and used PD fluid were evaluated, showing a linear relationship between fluorescence (excitation at 570 nm and emission at 615 nm) and concentration in the range of 0-20 μg/ml. By adding 1 mg/ml of unlabeled bovine serum albumin, a small difference in baseline fluorescence between the fresh and the used PD fluid was eliminated. […] In the present tests, 100 μg Texas Red® labelled bovine serum albumin and 1 mg unlabeled BSA was added to 20 ml PD fluid and intraperitoneal volumes were determined from the dilution calculated from fluorescence values of cell-free samples. The intraperitoneal volumes obtained from measurements of Texas Red® albumin after PD fluid exposure increased when citrate was added to the PD fluid, see FIG. 2. The citrate concentration used in the test of FIG. 2 was 10 mM.
structure (smiles),measurement,setting,value
"O=C(O)CC(O)(CC(=O)O)C(=O)O [citrate, tri-sodium citrate]",citrate concentration providing a reasonable inhibited complement cascade,"[1]; read from FIG. 1, lower limit of citrate in PD fluid",at least 4 mM
same,C3a-desarg concentration (complement activation),"[1]; venous blood in PD fluid with citrate additions of 0, 2, 4, 6, 8 and 10 mM, Zymosan, FIG. 1",decreased with increasing citrate concentration
same,intraperitoneal volumes (ultrafiltration) after PD fluid exposure,[2],increased

# From patent US8367731B2, “Peritoneal dialysis fluid” (Fresenius Medical Care Deutschland GmbH, priority 2005, dated 2013)
